From paper PMC9632963, “Preclinical characterization and phase I clinical trial of CT053PTSA targets MET, AXL, and VEGFR2 in patients with advanced solid tumors” (Frontiers in Immunology, 2022)
pIC50: −log10 of the molar value. Where “and” joins values, the source holds several entries; their conditions need not be identical. Identical values can stand only once. Entries after “also recorded” stand apart in the source; their conditions may differ. Like-named read-outs stand apart in the source and are kept apart here.

Key:
[1] = test system: patients with advanced solid tumors; test: Phase I trial: antitumor activity (RECIST 1.1); format: in vivo, human
Protocol: Descriptive statistics of safety are presented per CTCAE v4.0. Subjects who received at least one dose of CT053PTSA were considered eligible to be evaluated and included in safety analyses. […] According to the RECIST 1.1 criteria, imaging examinations were performed at each specified time point in the protocol. The antitumor activity was measured by RECIST1.1.

SNU620 = test: Cell proliferation assay (CellTiter-Glo, 72 hours); format: cell-based; conditions: Homo sapiens, read-out: IC50 anti-proliferative
Protocol: (§3) Human gastric tumor cell lines with high MET expression levels, namely, the GTL-16, MKN45, SNU638, Hs746T, SNU-620, and SNU-5 cell lines, were used in the assay. […] Cell viability was measured after 72 hours using a CellTiter-Glo Luminescent Cell Viability Assay Kit (Promega, WI, USA) according to the manufacturer’s instructions.

Yes = Yes (Homo sapiens, UniProt P07947); test: Kinase inhibition assay (LANCE or HTRF); format: biochemical; conditions: ATP at Km
Sequence of Yes (P07947 whole entry): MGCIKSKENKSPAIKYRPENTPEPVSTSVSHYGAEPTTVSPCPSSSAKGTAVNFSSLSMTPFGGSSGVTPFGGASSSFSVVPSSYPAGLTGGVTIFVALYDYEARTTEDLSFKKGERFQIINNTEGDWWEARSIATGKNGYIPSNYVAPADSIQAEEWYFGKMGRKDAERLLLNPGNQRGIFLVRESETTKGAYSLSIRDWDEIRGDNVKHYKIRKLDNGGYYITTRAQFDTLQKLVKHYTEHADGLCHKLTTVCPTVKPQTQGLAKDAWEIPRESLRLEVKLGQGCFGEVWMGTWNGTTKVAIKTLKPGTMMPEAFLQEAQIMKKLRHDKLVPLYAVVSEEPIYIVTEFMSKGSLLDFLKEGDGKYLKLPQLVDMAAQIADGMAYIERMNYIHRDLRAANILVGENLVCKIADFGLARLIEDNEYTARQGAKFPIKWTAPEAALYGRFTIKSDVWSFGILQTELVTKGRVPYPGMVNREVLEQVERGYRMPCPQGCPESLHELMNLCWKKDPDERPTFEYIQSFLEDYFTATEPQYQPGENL
Protocol: (§4) The IC50 values were determined by measuring phosphorylation of peptide substrate poly at ATP concentrations at the Km.

phosphorylation of MET = test: Western blot of tumor lysates from GA3121 PDX model; format: in vivo, immunodeficient mice; conditions: 20 mg/kg, 21 days
Description: (§1) The SNU-5 cell line was selected for western blotting analysis of signaling molecules. […] Immunoreactive proteins (p-AXL, t-ERK and p-ERK) were visualized using the ECL system (Pierce Chemical, TX, USA). Other proteins were detected by Odyssey (LI-COR, NE, USA) at a wavelength of 700 nm or 800 nm. […] Tumor lysates were subjected to western blotting. The following antibodies were purchased from Cell Signaling Technology (Cell Signaling Technology Cat#3148, RRID : AB_1031042): anti-MET (Cell Signaling Technology Cat# 3148, RRID : AB_1031042), anti-p-MET Y1234/1235 (Antibodies-Online Cat# ABIN461461, RRID : AB_10786128), anti-AXL (Cell Signaling Technology Cat# 4566, RRID : AB_2062563), anti-p-AXL Y702 (5724S), anti-ERK (9107S), anti-p-ERK Thr202/Tyr204 (4370S), anti-p-AKT Ser473 (4060S), and anti-AKT (Cell Signaling Technology Cat# 2920, RRID : AB_1147620).
(§2) Human tumor xenografts were established in female BALB/cA nude mice (5-6 weeks old) by administering the SNU-5 and MKN-45 cells, which have high MET expression levels. […] The subcutaneous tumor size and body weight were measured twice weekly. The tumor volumes were determined by measuring two perpendicular diameters with calipers and calculated as (length × width^2)/2.

SNU-5 CDX xenografts = test: In vivo efficacy study, CDX model; design: species or system BALB/cA nude mice
Protocol: as §2, with “levels. For efficacy studies in patient-derived tumor xenograft (PDX) mouse models, MET-overexpressing GA0046 and GA3121 tumors (obtained from Crownbio, CA, USA) were established by directly implanting surgical tissues into immunodeficient mice.” for “levels.”

MKN-45 CDX xenografts = test: In vivo efficacy study, CDX model; design: species or system BALB/cA nude mice
Protocol: as §2, with “levels. For efficacy studies in patient-derived tumor xenograft (PDX) mouse models, MET-overexpressing GA0046 and GA3121 tumors (obtained from Crownbio, CA, USA) were established by directly implanting surgical tissues into immunodeficient mice.” for “levels.”

ERK phosphorylation = test: Western blot of signaling molecules in SNU-5 cells; format: cell-based, human
Description: as §1

AKT phosphorylation = test: Western blot of signaling molecules in SNU-5 cells; format: cell-based, human
Description: as §1

MET phosphorylation = test: Western blot of signaling molecules in SNU-5 cells; format: cell-based, human
Description: as §1

AXL phosphorylation = test: Western blot of signaling molecules in SNU-5 cells; format: cell-based, human
Description: as §1

ITK = ITK (Homo sapiens, UniProt Q08881); test: Kinase inhibition assay (LANCE or HTRF); format: biochemical; conditions: ATP at Km
Sequence of ITK (Q08881 whole entry): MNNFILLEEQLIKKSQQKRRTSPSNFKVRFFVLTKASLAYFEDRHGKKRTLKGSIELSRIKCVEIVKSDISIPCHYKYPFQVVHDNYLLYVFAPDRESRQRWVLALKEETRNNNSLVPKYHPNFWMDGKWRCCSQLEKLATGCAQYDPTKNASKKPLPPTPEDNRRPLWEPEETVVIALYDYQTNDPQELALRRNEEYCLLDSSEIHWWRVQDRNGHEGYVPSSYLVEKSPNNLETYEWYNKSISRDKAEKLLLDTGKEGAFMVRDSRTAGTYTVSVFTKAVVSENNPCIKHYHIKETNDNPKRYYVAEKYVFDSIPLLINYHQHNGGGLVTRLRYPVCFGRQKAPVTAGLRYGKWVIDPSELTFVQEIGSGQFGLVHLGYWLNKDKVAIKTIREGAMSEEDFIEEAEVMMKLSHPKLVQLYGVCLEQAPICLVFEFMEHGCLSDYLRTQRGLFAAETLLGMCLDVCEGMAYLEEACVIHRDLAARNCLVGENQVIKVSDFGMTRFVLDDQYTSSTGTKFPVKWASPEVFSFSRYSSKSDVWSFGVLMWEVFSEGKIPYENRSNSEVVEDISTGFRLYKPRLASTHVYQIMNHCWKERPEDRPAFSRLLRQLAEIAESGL
Protocol: as §4

FRK = FRK (Homo sapiens, UniProt P42685); test: Kinase inhibition assay (LANCE or HTRF); format: biochemical; conditions: ATP at Km
Sequence of FRK (P42685 whole entry): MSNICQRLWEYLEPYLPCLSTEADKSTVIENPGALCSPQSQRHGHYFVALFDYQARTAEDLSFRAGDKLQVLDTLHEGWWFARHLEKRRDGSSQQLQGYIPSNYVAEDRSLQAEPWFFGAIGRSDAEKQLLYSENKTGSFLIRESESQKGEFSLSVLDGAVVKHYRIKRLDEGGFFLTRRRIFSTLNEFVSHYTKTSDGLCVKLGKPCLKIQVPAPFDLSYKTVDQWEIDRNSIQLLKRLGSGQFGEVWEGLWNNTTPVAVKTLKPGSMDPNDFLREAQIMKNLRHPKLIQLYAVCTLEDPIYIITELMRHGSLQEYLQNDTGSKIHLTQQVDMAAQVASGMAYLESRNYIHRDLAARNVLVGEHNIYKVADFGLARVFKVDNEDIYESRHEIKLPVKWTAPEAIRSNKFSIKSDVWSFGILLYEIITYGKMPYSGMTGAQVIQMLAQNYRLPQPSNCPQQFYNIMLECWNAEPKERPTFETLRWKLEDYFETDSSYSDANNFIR
Protocol: as §4

VEGFR2 = VEGFR2 (Homo sapiens, UniProt P35968); test: Cellular kinase phosphorylation assay (sandwich ELISA), HUVECs, VEGF-A stimulated; format: cell-based; design: endogenous in cells; host or cells: HUVEC
Sequence of VEGFR2 (P35968 20-1356): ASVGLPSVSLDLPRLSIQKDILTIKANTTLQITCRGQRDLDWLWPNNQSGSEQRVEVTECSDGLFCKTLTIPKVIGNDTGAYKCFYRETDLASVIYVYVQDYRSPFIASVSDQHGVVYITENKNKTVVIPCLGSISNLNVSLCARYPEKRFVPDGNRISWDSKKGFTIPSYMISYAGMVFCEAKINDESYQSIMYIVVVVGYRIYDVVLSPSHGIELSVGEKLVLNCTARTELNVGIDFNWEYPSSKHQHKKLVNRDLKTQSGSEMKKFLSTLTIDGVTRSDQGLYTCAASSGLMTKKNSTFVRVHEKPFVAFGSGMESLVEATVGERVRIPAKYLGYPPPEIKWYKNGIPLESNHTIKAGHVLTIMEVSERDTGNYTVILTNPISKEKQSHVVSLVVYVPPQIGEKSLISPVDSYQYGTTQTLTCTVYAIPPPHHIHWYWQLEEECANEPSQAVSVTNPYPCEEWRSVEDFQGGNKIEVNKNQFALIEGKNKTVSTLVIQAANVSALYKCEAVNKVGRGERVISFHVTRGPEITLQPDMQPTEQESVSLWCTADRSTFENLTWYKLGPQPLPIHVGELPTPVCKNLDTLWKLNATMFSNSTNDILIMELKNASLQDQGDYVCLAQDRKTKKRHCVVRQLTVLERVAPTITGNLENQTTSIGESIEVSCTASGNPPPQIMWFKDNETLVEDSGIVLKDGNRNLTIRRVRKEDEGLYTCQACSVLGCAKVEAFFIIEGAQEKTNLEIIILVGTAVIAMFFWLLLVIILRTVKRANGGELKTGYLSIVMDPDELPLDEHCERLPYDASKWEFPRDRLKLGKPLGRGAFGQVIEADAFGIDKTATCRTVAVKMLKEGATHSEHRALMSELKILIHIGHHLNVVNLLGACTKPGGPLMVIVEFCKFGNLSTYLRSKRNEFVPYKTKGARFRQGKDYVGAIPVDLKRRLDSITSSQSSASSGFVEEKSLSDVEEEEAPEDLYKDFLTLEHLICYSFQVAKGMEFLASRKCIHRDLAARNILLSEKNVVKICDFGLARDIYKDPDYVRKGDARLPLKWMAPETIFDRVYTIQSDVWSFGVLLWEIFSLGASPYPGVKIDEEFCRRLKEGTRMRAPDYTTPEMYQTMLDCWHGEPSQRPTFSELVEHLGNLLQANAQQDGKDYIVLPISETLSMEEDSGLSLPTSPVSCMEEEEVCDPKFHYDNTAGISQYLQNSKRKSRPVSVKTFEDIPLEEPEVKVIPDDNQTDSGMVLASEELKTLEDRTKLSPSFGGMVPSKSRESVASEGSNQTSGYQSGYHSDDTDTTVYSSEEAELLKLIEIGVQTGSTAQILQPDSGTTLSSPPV
Protocol: Phosphorylation of the receptors MET, AXL, VEGFR2, and FLT3 was assessed in the transgenic human MKN45 gastric tumor cell line overexpressing MET, mouse embryonic fibroblasts (MEFs) expressing full-length human AXL (AXL-MEFs), human umbilical vein endothelial cells (HUVECs) […], and MEFs expressing full-length human FLT3 (FLT3-wt-MEFs), respectively. […] Then, HUVECs and FLT3-wt-MEFs were stimulated with the ligands VEGF-A (100 ng/ml, for 3 min) and FLT3-ligand (50 ng/ml, for 5 min). MKN45 (overexpressing MET) and AXL-MEFs cells had no stimulation. Cells treated with staurosporine (AXL, FLT3-wt, c-Kit, FLT3, TIE2, VEGF-R2; [1,0E-05 M]) or BMS777607 (MET; [1,0E-06 M]) or sunitinib (VEGF-R3; [1,0E-06 M]) or crizotinib (RON; [1,0E-05 M] were defined as low control (n = 8). The median value of those wells represented the background and was set to 0%. Cells treated with solvent alone were defined as high control (n = 8). The median value of those wells was set to 100%. Test sample-treated cells as well as high and low control were stimulated in identical manner. Quantification of receptor tyrosine kinase autophosphorylation was assessed in 96-well plates via sandwich ELISA using a receptor specific capture antibody and an anti-phosphotyrosine detection antibody. […]

SNU-216 = test: Cell proliferation assay (CellTiter-Glo, 72 hours); format: cell-based; conditions: Homo sapiens, read-out: IC50 anti-proliferative
Protocol: Human gastric tumor cell lines with high MET expression levels, namely, the GTL-16, MKN45, SNU638, Hs746T, SNU-620, and SNU-5 cell lines, were used in the assay. These cell lines were obtained from American Type Culture Collection (ATCC), Japanese Collection of Research Bioresources (JCRB), Shanghai Institutes of Biological Sciences, CAS (SIBS), Korean Cell Line Bank (KCLB) or National Institutes of Health (NIH). […] Cell viability was measured after 72 hours using a CellTiter-Glo Luminescent Cell Viability Assay Kit (Promega, WI, USA) according to the manufacturer’s instructions.

FLT3 = FLT3 (Homo sapiens, UniProt P36888); test: Cellular kinase phosphorylation assay (sandwich ELISA), FLT3-wt-MEFs, FLT3-ligand stimulated; format: cell-based; design: MEFs expressing full-length human FLT3 (FLT3-wt-MEFs); expressed in transfected cells; host or cells: mouse embryonic fibroblasts (MEFs); conditions: FLT3-ligand 50 ng/ml
Protocol: Phosphorylation of the receptors MET, AXL, VEGFR2, and FLT3 was assessed in the transgenic human MKN45 gastric tumor cell line overexpressing MET, mouse embryonic fibroblasts (MEFs) expressing full-length human AXL (AXL-MEFs), human umbilical vein endothelial cells (HUVECs) overexpressing VEGFR-2, and MEFs expressing full-length human FLT3 (FLT3-wt-MEFs), respectively. […] Then, HUVECs and FLT3-wt-MEFs were stimulated with the ligands VEGF-A (100 ng/ml, for 3 min) and FLT3-ligand (50 ng/ml, for 5 min). MKN45 (overexpressing MET) and AXL-MEFs cells had no stimulation. […] Raw data were converted into percent substrate phosphorylation relative to high controls, which were set to 100%.

Fer = Fer (Homo sapiens, UniProt P16591); test: Kinase inhibition assay (LANCE or HTRF); format: biochemical; conditions: ATP at Km
Sequence of Fer (P16591 whole entry): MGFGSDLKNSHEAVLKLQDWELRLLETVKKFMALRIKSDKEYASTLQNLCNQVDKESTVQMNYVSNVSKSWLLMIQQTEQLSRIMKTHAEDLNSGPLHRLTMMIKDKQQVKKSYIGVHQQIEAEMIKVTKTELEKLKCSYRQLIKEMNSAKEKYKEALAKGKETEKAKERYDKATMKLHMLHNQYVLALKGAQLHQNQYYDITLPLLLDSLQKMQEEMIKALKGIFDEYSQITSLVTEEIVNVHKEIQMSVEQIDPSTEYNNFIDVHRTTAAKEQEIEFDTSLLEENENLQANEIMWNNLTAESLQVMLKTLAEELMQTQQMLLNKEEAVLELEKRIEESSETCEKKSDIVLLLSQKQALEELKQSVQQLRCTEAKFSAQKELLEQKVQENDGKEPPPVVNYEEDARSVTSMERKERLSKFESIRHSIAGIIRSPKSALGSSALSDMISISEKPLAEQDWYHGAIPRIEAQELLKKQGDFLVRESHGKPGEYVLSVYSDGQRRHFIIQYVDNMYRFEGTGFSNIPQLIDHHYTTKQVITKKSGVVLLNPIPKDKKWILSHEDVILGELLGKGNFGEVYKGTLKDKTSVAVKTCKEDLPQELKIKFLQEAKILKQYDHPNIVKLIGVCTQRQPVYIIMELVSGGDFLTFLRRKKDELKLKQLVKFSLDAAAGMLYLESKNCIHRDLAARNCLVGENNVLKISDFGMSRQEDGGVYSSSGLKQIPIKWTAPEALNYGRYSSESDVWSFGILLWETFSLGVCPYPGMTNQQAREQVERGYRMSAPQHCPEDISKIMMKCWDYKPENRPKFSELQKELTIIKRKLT
Protocol: as §4

RET = RET (Homo sapiens, UniProt P07949); test: Kinase inhibition assay (LANCE or HTRF); format: biochemical; conditions: ATP at Km
Sequence of RET (P07949 29-1114): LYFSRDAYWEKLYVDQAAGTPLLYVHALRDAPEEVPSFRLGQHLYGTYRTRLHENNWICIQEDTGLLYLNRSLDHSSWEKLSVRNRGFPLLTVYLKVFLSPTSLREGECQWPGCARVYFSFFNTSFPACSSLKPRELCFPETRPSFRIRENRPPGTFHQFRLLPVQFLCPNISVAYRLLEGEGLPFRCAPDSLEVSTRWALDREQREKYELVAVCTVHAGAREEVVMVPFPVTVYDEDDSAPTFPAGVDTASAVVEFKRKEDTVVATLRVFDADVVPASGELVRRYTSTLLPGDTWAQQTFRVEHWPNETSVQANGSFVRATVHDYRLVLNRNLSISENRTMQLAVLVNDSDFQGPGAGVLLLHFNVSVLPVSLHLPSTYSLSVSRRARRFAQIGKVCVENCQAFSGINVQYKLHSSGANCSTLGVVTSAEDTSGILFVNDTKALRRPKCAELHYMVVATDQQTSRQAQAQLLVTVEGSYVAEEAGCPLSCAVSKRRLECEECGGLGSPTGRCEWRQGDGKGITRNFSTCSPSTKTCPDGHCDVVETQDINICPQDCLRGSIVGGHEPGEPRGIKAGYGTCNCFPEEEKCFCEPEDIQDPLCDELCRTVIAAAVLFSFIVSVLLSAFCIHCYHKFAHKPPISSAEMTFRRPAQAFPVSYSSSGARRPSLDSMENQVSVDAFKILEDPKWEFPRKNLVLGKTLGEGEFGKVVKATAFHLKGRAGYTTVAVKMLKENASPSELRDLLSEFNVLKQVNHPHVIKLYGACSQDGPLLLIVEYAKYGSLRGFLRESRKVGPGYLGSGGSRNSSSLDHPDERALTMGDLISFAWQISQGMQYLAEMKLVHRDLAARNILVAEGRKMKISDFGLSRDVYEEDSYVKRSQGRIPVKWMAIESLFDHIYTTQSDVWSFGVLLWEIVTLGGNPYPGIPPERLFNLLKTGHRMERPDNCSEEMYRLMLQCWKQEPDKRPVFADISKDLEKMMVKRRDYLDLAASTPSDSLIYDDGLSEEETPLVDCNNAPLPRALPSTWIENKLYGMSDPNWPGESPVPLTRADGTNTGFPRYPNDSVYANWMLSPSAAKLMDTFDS
Protocol: as §4

SNU-5 = test: Cell proliferation assay (CellTiter-Glo, 72 hours); format: cell-based; conditions: Homo sapiens, read-out: IC50 anti-proliferative
Protocol: as §3

EphA6 = EphA6 (Homo sapiens, UniProt Q9UF33); test: Kinase inhibition assay (LANCE or HTRF); format: biochemical; conditions: ATP at Km
Protocol: as §4

[2] = 3 mg/kg once per day oral gavage

Question: Cc1c(C(=O)Nc2ccc(Oc3ccnc4cc(OCC(C)(C)O)ccc34)c(F)c2)c(=O)n(-c2ccccc2)n1C [CT053PTSA] was tested. Which “duration of SD in single patients” value ([1]; 60 mg QD) did it give?
Answer: 16 weeks and 24 weeks

Question: What about the “duration of SD in single patient” value ([1]; 100 mg dose group) of the same molecule?
Answer: 8 weeks

Question: What about the “CR or PR” value ([1]; 17 evaluated patients) of the same molecule?
Answer: none of them achieved CR or PR; also recorded: No CR or PR was observed

Question: And the DCR ([1]; 17 evaluated patients)?
Answer: 29.4%

Question: With Cc1c(C(=O)Nc2ccc(Oc3ccnc4cc(OCC(C)(C)O)ccc34)c(F)c2)c(=O)n(-c2ccccc2)n1C [CT053] as the molecule, how does the pIC50 (SNU620) read?
Answer: 7.22

Question: What about the pIC50 (Yes) of the same molecule?
Answer: 6.96

Question: What about the “phosphorylation of MET in tumors vs vehicle” value (phosphorylation of MET) of the same molecule?
Answer: significantly inhibited

Question: What about the TGI (SNU-5 CDX xenografts; 1 mg/kg once per day oral gavage) of the same molecule?
Answer: 32%

Question: What about the TGI (SNU-5 CDX xenografts; [2]) of the same molecule?
Answer: 87%

Question: What about the TGI (MKN-45 CDX xenografts; [2]) of the same molecule?
Answer: 31%

Question: What about the TGI (MKN-45 CDX xenografts; 10 mg/kg once per day oral gavage) of the same molecule?
Answer: 85%

Question: And the TGI (MKN-45 CDX xenografts; 20 mg/kg once per day oral gavage)?
Answer: 97%

Question: What about the “concentration that completely suppressed phosphorylation of ERK” value (ERK phosphorylation) of the same molecule?
Answer: 1000 nM

Question: What about the “suppression of induced AKT activity” value (AKT phosphorylation) of the same molecule?
Answer: a much higher concentration of CT053 was required

Question: What about the “concentration that completely suppressed phosphorylation of MET” value (MET phosphorylation) of the same molecule?
Answer: 1000 nM

Question: And the “concentration that completely suppressed AXL phosphorylation” value (AXL phosphorylation)?
Answer: 100 nM

Question: And the pIC50 (ITK)?
Answer: 6.62

Question: What about the pIC50 (FRK) of the same molecule?
Answer: 6.28

Question: What about the pIC50 (VEGFR2; HUVECs, VEGF-A 100 ng/ml, read-out: IC50, phosphorylation of VEGFR2) of the same molecule?
Answer: 8.96

Question: And the pIC50 (VEGFR2; printed in Figure 1E, read-out: phospho-VEGF-R2: IC50)?
Answer: 8.96

Question: And the pIC50 (SNU-216)?
Answer: < 5.00

Question: And the pIC50 (FLT3)?
Answer: 8.82

Question: And the pIC50 (Fer)?
Answer: 6.48

Question: What about the pIC50 (RET) of the same molecule?
Answer: 6.70

Question: What about the pIC50 (SNU-5) of the same molecule?
Answer: 7.22

Question: What about the pIC50 (EphA6) of the same molecule?
Answer: 7.09
